According to patent publication US8987195B2 (priority 2012, dated 2015):
pEC50: −log10 of the molar value. Read-outs that look alike come from different tables or passages of the source.

Experiments:
[1] = target: HCV NS3/4A protease genotype 1b (Hepatitis C virus genotype 1b, UniProt P26663); assay: HCV NS3/4A protease time-resolved fluorescence (TRF) assay, Ki against genotype 1b; format: biochemical; conditions: IC50 [gt-1b] (nM), NS3/4A genotype 1b, enzyme 0.2 nM
Procedure, shortened: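 Ki values come from IC50 fits corrected for substrate concentration and KM. The time-resolved fluorescence protease reaction used 25 nM peptide substrate, 2.5 h, room temperature, pH 7.5 HEPES buffer, after 30 min enzyme–inhibitor preincubation.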

HCV genotype 1b replicon = assay: HCV replicon assay, genotype 1b replicon EC50; format: cell-based, Hepatitis C virus; conditions: genotype 1b replicon, read-out: EC50 [gt-1b]
Procedure, shortened: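 Assay format: compound titration on stable replicon cells, no G418 during treatment, 24 to 48 hours. Lysates were assayed for replicon RNA (hybridization/protection or TaqMan) or luciferase; EC50 fitted to four parameters against DMSO.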

HCV NS3/4A protease genotype 1b, sequence (P26663 1027-1657): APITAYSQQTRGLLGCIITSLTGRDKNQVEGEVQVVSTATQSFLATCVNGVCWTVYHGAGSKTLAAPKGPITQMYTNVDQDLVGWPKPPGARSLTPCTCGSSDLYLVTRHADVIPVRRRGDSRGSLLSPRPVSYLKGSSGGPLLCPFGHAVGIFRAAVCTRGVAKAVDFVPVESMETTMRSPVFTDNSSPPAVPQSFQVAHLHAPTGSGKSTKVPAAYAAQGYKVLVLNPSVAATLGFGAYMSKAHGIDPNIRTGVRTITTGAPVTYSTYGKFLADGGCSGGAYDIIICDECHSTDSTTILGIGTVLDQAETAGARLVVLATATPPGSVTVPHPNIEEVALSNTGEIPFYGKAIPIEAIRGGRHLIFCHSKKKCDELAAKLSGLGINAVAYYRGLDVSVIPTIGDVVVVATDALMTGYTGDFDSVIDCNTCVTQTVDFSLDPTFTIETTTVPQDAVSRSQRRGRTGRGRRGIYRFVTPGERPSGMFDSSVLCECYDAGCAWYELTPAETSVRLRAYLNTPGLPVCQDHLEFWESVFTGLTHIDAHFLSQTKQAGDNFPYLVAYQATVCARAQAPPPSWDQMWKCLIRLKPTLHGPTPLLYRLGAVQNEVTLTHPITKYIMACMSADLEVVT
HCV NS3/4A protease genotype 1b, sequence (P26663 1658-1711): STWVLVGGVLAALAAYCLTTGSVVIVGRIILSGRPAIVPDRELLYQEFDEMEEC

Compound | IC50 [1] [nM] | pEC50 (HCV genotype 1b replicon; Hepatitis C virus) | pEC50 (HCV genotype 1b replicon) | IC50 ([1]; K+ salt) [nM] | pEC50 (HCV genotype 1b replicon; Hepatitis C virus, K+ salt)
Cc1nc2ccccc2c2c1O[C@]1(CC2)C[C@H]2C(=O)N[C@]3(C(=O)NS(=O)(=O)C4(C)CC4)C[C@H]3/C=C\CCCCC[C@H](NC(=O)OC3CC(F)(F)C3(F)F)C(=O)N2C1 (stereo partly drawn) [Example 320, 2,2,3,3-tetrafluorocyclobutyl [(2R,6S,12Z,13aS,14aR,16aS)-5′-methyl-14a-{[(1-methylcyclopropyl)sulfonyl]carbamoyl}-5,16-dioxo-1,1′,2′,5,6,7,8,9,10,11,13a,14,14a,15,16,16a-hexadecahydrospiro[cyclopropa[e]pyrrolo[1,2-a][1,4]diazacyclopentadecine-2,3′-pyrano[2,3-c]quinolin]-6-yl]carbamate] | 0.013 | 8.35 | – | – | –
Cc1nc2ccccc2c2c1O[C@]1(CC2)C[C@H]2C(=O)N[C@]3(C(=O)NS(=O)(=O)C4(C)CC4)C[C@H]3/C=C\CCCCC[C@H](NC(=O)OC3CC(F)(F)C3(F)F)C(=O)N2C1 (stereo partly drawn) [Example 321, 2,2,3,3-tetrafluorocyclobutyl [(2R,6S,12Z,13aS,14aR,16aS)-5′-methyl-14a-{[(1-methylcyclopropyl)sulfonyl]carbamoyl}-5,16-dioxo-1,1′,2′,5,6,7,8,9,10,11,13a,14,14a,15,16,16a-hexadecahydrospiro[cyclopropa[e]pyrrolo[1,2-a][1,4]diazacyclopentadecine-2,3′-pyrano[2,3-c]quinolin]-6-yl]carbamate] | 0.03 | – | 8.15 | – | –
CC(C)(OC(=O)N[C@H]1CCCCC/C=C\[C@@H]2C[C@@]2(C(=O)NS(=O)(=O)C2(C)CC2)NC(=O)[C@@H]2C[C@]3(CCc4c(c(C5CC5)nc5ccc6c(c45)OCO6)O3)CN2C1=O)C(F)(F)F [Example 322, 1,1,1-trifluoro-2-methylpropan-2-yl [(2R,6S,12Z,13aS,14aR,16aS)-7′-cyclopropyl-14a-{[(1-methylcyclopropyl)sulfonyl]carbamoyl}-5,16-dioxo-1,5,6,7,8,9,10,10′,11,11′,13a,14,14a,15,16,16a-hexadecahydrospiro[cyclopropa[e]pyrrolo[1,2-a][1,4]diazacyclopentadecine-2,9′-[1,3]dioxolo[4,5-f]pyrano[2,3-c]quinolin]-6-yl]carbamate] | 0.073 | 8.16 | – | – | –
CC1(S(=O)(=O)NC(=O)[C@@]23C[C@H]2/C=C\CCCCC[C@H](NC(=O)OC2CCCC2)C(=O)N2C[C@@]4(CCc5c(c(C6CC6)nc6ccc7c(c56)OCO7)O4)C[C@H]2C(=O)N3)CC1 [Example 323, cyclopentyl [(2R,6S,12Z,13aS,14aR,16aS)-7′-cyclopropyl-14a-{[(1-methylcyclopropyl)sulfonyl]carbamoyl}-5,16-dioxo-1,5,6,7,8,9,10,10′,11,11′,13a,14,14a,15,16,16a-hexadecahydrospiro[cyclopropa[e]pyrrolo[1,2-a][1,4]diazacyclopentadecine-2,9′-[1,3]dioxolo[4,5-f]pyrano[2,3-c]quinolin]-6-yl]carbamate] | 0.012 | 7.94 | – | – | –
CC(C)(C)COC(=O)N[C@H]1CCCCC/C=C\[C@@H]2C[C@@]2(C(=O)NS(=O)(=O)C2(C)CC2)NC(=O)[C@@H]2C[C@]3(CCc4c(c(C5CC5)nc5ccc6c(c45)OCO6)O3)CN2C1=O [Example 324, 2,2-dimethylpropyl [(2R,6S,12Z,13aS,14aR,16aS)-7′-cyclopropyl-14a-{[(1-methylcyclopropyl)sulfonyl]carbamoyl}-5,16-dioxo-1,5,6,7,8,9,10,10′,11,11′,13a,14,14a,15,16,16a-hexadecahydrospiro[cyclopropa[e]pyrrolo[1,2-a][1,4]diazacyclopentadecine-2,9′-[1,3]dioxolo[4,5-f]pyrano[2,3-c]quinolin]-6-yl]carbamate] | 0.022 | 8.44 | – | – | –
CCCOC(=O)N[C@H]1CCCCC/C=C\[C@@H]2C[C@@]2(C(=O)NS(=O)(=O)C2(C)CC2)NC(=O)[C@@H]2C[C@]3(CCc4c(c(C(F)F)nc5ccccc45)O3)CN2C1=O [Example 325, propyl [(2R,6S,12Z,13aS,14aR,16aS)-5′-(difluoromethyl)-14a-{[(1-methylcyclopropyl)sulfonyl]carbamoyl}-5,16-dioxo-1,1′,2′,5,6,7,8,9,10,11,13a,14,14a,15,16,16a-hexadecahydrospiro[cyclopropa[e]pyrrolo[1,2-a][1,4]diazacyclopentadecine-2,3′-pyrano[2,3-c]quinolin]-6-yl]carbamate] | 0.013 | 8.49 | – | – | –
Cc1nc2ccccc2c2c1O[C@]1(CC2)C[C@H]2C(=O)N[C@]3(C(=O)NS(=O)(=O)C4(C)CC4)C[C@H]3/C=C\CCCCC[C@H](NC(=O)OC3(C(F)(F)F)CCCC3)C(=O)N2C1 [Example 326, 1-(trifluoromethyl)cyclopentyl [(2R,6S,12Z,13aS,14aR,16aS)-5′-methyl-14a-{[(1-methylcyclopropyl)sulfonyl]carbamoyl}-5,16-dioxo-1,1′,2′,5,6,7,8,9,10,11,13a,14,14a,15,16,16a-hexadecahydrospiro[cyclopropa[e]pyrrolo[1,2-a][1,4]diazacyclopentadecine-2,3′-pyrano[2,3-c]quinolin]-6-yl]carbamate] | 0.023 | 8.95 | – | – | –
Cc1nc2cc(F)ccc2c2c1O[C@]1(CC2)C[C@H]2C(=O)N[C@]3(C(=O)NS(=O)(=O)C4(C)CC4)C[C@H]3/C=C\CCCCC[C@H](NC(=O)OC3CCCC3)C(=O)N2C1 [Example 327, cyclopentyl [(2R,6S,12Z,13aS,14aR,16aS)-8′-fluoro-5′-methyl-14a-{[(1-methylcyclopropyl)sulfonyl]carbamoyl}-5,16-dioxo-1,1′,2′,5,6,7,8,9,10,11,13a,14,14a,15,16,16a-hexadecahydrospiro[cyclopropa[e]pyrrolo[1,2-a][1,4]diazacyclopentadecine-2,3′-pyrano[2,3-c]quinolin]-6-yl]carbamate] | – | – | – | 0.026 | 8.44
Cc1nc2cc(F)ccc2c2c1O[C@]1(CC2)C[C@H]2C(=O)N[C@]3(C(=O)NS(=O)(=O)C4(C)CC4)C[C@H]3/C=C\CCCCC[C@H](NC(=O)OC(C)(C)C(F)(F)F)C(=O)N2C1 [Example 328, 1,1,1-trifluoro-2-methylpropan-2-yl [(2R, 6S,12Z,13aS,14aR,16aS)-8′-fluoro-5′-methyl-14a-{[(1-methylcyclopropyl)sulfonyl]carbamoyl}-5,16-dioxo-1,1′,2′,5,6,7,8,9,10,11,13a,14,14a,15,16,16a-hexadecahydrospiro[cyclopropa[e]pyrrolo[1,2-a][1,4]diazacyclopentadecine-2,3′-pyrano[2,3-c]quinolin]-6-yl]carbamate] | – | – | – | 0.348 | 7.33
CCOC(=O)N[C@H]1CCCCC/C=C\[C@@H]2C[C@@]2(C(=O)NS(=O)(=O)C2(C)CC2)NC(=O)[C@@H]2C[C@]3(CCc4c(c(C(F)F)nc5ccccc45)O3)CN2C1=O [Example 329, ethyl [(2R,6S,12Z,13aS,14aR,16aS)-5′-(difluoromethyl)-14a-{[(1-methylcyclopropyl)sulfonyl]carbamoyl}-5,16-dioxo-1,1′,2′,5,6,7,8,9,10,11,13a,14,14a,15,16,16a-hexadecahydrospiro[cyclopropa[e]pyrrolo[1,2-a][1,4]diazacyclopentadecine-2,3′-pyrano[2,3-c]quinolin]-6-yl]carbamate] | 0.032 | 7.91 | – | – | –
CC(C)(C)OC(=O)N[C@H]1CCCCC/C=C\[C@@H]2C[C@@]2(C(=O)NS(=O)(=O)C2(C)CC2)NC(=O)[C@@H]2C[C@]3(CCc4c(c(C(F)F)nc5ccc(Cl)cc45)O3)CN2C1=O [Example 331, tert-butyl [(2R,6S,12Z,13aS,14aR,16aS)-9′-chloro-5′-(difluoromethyl)-14a-{[(1-methylcyclopropyl)sulfonyl]carbamoyl}-5,16-dioxo-1,1′,2′,5,6,7,8,9,10,11,13a,14,14a,15,16,16a-hexadecahydrospiro[cyclopropa[e]pyrrolo[1,2-a][1,4]diazacyclopentadecine-2,3′-pyrano[2,3-c]quinolin]-6-yl]carbamate] | 0.01 | 8.17 | – | – | –
Cc1nc2ccc(C3CC3)cc2c2c1O[C@]1(CC2)C[C@H]2C(=O)N[C@]3(C(=O)NS(=O)(=O)C4(C)CC4)C[C@H]3/C=C\CCCCC[C@H](NC(=O)OC(C)(C)C)C(=O)N2C1 [Example 332, tert-butyl [(2R,6S,12Z,13aS,14aR,16aS)-9′-cyclopropyl-5′-methyl-14a-{[(1-methylcyclopropyl)sulfonyl]carbamoyl}-5,16-dioxo-1,1′,2′,5,6,7,8,9,10,11,13a,14,14a,15,16,16a-hexadecahydrospiro[cyclopropa[e]pyrrolo[1,2-a][1,4]diazacyclopentadecine-2,3′-pyrano[2,3-c]quinolin]-6-yl]carbamate] | 0.017 | 8.57 | – | – | –
Cc1nc2ccc(Cl)cc2c2c1O[C@]1(CC2)C[C@H]2C(=O)N[C@]3(C(=O)NS(=O)(=O)C4(C)CC4)C[C@H]3/C=C\CCCCC[C@H](NC(=O)OC(C)(C)C(F)(F)F)C(=O)N2C1 [Example 333, 1,1,1-trifluoro-2-methylpropan-2-yl [(2R,6S,12Z,13aS,14aR,16aS)-9′-chloro-5′-methyl-14a-{[(1-methylcyclopropyl)sulfonyl]carbamoyl}-5,16-dioxo-1,1′,2′,5,6,7,8,9,10,11,13a,14,14a,15,16,16a-hexadecahydrospiro[cyclopropa[e]pyrrolo[1,2-a][1,4]diazacyclopentadecine-2,3′-pyrano[2,3-c]quinolin]-6-yl]carbamate] | 0.01 | 7.99 | – | – | –
